According to patent publication US20250064808A1, “METHODS FOR THE TREATMENT OF NLRP3 RELATED DISORDERS” (priority 2022, published 2025):

How the values were obtained:
BMDM [1] = assay: cytosolic Ox-mtDNA (8-OH-dG ELISA of cytosolic mtDNA) in BMDM; type: cell-based, mouse; settings: LPS-primed BMDM, compound 10 μM 16 h, ATP 4 mM 1 h
Procedure: (§1) Bone marrow cells were cultured in high glucose DMEM supplemented with 10% FBS, 20% L929-cell conditioned medium, and 100 U/mL penicillin-streptomycin for 7-10 days at 37° C. with 5% CO2 (Hornung et al., 2008).
(§2) BMDM were stimulated as indicated. […] Briefly, BMDM were washed with PBS and harvested, 10% of which were saved for DNA extraction of whole cells. The remaining BMDM resuspended with pre-chilled mitochondrial extraction buffer 1 (220 mM mannitol, 70 mM sucrose, 20 mM HEPES-KOH, pH 7.5, 1 mM EDTA and 2 mg/mL bovine serum albumin) supplemented with a protease inhibitor cocktail and a phosphatase inhibitor cocktail were passed through a 25-G syringe (BD Biosciences) 20 times on ice. The homogenized cells were centrifuged at 1000×g for 15 minutes at 4° C. The supernatant was further centrifuged at 10,000×g for 10 minutes at 4° C. to pellet the mitochondria from supernatant cytosolic fraction. qPCR was performed after DNA purification with AllPrep DNA/RNA Mini Kit according to manufacturer's instructions, from both whole cell extracts and cytosolic fractions using mtDNA primers (D-loop, Cox1, non-NUMT), or after DNA purification from whole cell extracts using nuclear DNA primers (Tert, 18S, B2m). The Ct values obtained for mtDNA abundance in whole cell extracts served as normalization controls for the mtDNA values obtained from the cytosolic fractions. For the measurement of Ox-mtDNA, purified mtDNA was extracted from the cytosolic or mitochondrial fractions as indicated. The 8-OH-dG content was then quantified using 8-hydroxy 2-deoxyguanosine ELISA Kit, per manufacturer's instructions.

BMDM [2] = assay: cytosolic mtDNA (qPCR after cellular fractionation) in BMDM; type: cell-based, mouse; settings: LPS-primed BMDM, compound 10 μM 16 h, ATP 4 mM 1 h
Procedure: as §1, §2

NLRP3 inflammasome [3] = assay: NLRP3 inflammasome activation (Casp1 p20 and mature IL-1β, IB and ELISA) in BMDM; type: cell-based, mouse; settings: LPS-primed BMDM, compound pretreatment 16 h, challenged with NLRP3 activators
Text: Paired antibodies (capture and detection) and standard recombinant mouse IL-1β and TNF were used to determine mouse cytokine concentrations according to manufacturer's instructions.

BMDM [4] = assay: total mtDNA (LPS-stimulated mtDNA synthesis, qPCR) in BMDM; type: cell-based, mouse; settings: compound 10 μM 16 h, before or after LPS priming
Text: Nuclear DNA encoding telomerase reverse transcriptase (Tert), 18S ribosomal RNA and β2 microglobulin (B2m) was used for normalization.

BMDM [5] = assay: mtDNA fragmentation (agarose gel of cytosolic and mitochondrial DNA) in BMDM; type: cell-based, mouse; settings: FEN1-IN-4 10 μM 16 h, LPS-primed, ATP
Text: To analyze DNA fragmentation and extrusion in mitochondrial and cytosolic fractions, BMDM (15000,000 cells per group) were stimulated as indicated and fractionalized as above. […] Cytosolic, mitochondrial or nuclear DNAs were purified using AllPrep DNA/RNA Mini Kit according to manufacturer's instructions and analyzed on 1% agarose gels stained with ethidium bromide.

NLRP3 inflammasome [6] = assay: alum-induced peritonitis in mice; type: in vivo, mouse
Procedure: 8-12-week-old male C57BL/6 mice and WT or mt-Ogg1Tg mice were allocated randomly and i.p. injected with alum (1 mg dissolved in 0.2 mL sterile PBS) or PBS. Peritoneal lavage was collected 4 h post-injection to measure cytokine amounts by ELISA. […] Neutrophils (CD11b^+Ly6G^+F4/80^−) and monocytes (CD11b^+Ly6C^+Ly6G^−) present in peritoneal lavage fluid were quantified by flow cytometry. For blocking Fc-mediated interactions, mouse cells were pre-incubated with 0.5-1 μg of purified anti-mouse CD16/CD32 per 100 μL. Isolated cells were stained with labelled antibodies in PBS with 2% FCS and 2 mM EDTA or cell staining buffer (Biolegend). Dead cells were excluded based on staining with propidium iodide (PI). Absolute numbers of immune cell subtypes in the peritoneum were calculated by multiplying total peritoneal cell numbers by percentages of immune cell subtypes amongst total cells. Cells were analyzed on a Beckman Coulter Cyan ADP flow cytometer. Paired antibodies (capture and detection) and standard recombinant mouse IL-1β and TNF were used to determine mouse cytokine concentrations according to manufacturer's instructions.

[7] = ccf-mtDNA and Fpg-sensitive Ox-mtDNA in peritoneal exudates of alum-challenged mice; type: in vivo, mouse; settings: FEN1-IN-4 40 mg/kg, exudates 4 and 16 hrs post-challenge
BMDM [8] = assay: extracellular (cell-free) mtDNA released by donor BMDM; type: cell-based, mouse; settings: LPS-primed donor BMDM pretreated with compound, challenged with ATP or nigericin
Procedure: Extracellular DNA of donor macrophages (1500,000 cells per group) was isolated using QIAamp Circulating Nucleic Acid Kit according to manufacturer's instructions and then eluted in 300 μL distilled H2O and quantified using spectrophotometric analysis at 260/280 nm with Nanodrop. […] Applicant used 5% of the prepared DNA for qPCR measurement of extracellular mtDNA and the remaining 95% were added to the recipient BMDM for analyzing the paracrine immunostimulatory effects.

BMDM [9] = assay: stimulation of naive recipient BMDM by cell-free mtDNA (cytokine and ISG mRNA, qPCR); type: cell-based, mouse; settings: recipient BMDM incubated 24 h with DNA from compound-pretreated donor BMDM; cytokine and ISG mRNAs
Procedure: RNA was extracted using AllPrep DNA/RNA Mini kit, and cDNA was synthesized using SuperScript™ VILO™ cDNA Synthesis Kit. mRNA expression was determined by QPCR in a CFX96 thermal cycler (Biorad) as described (Xian et al., 2021). Data are presented in arbitrary units and calculated by the 2^(−ΔΔCT) method. Primer sequences were obtained from the NIH qPrimerDepot (http://mouseprimerdepot.nci.nih.gov) and provided by Integrated DNA technologies.
Extracellular DNA of donor macrophages (1500,000 cells per group) was isolated using QIAamp Circulating Nucleic Acid Kit according to manufacturer's instructions and then eluted in 300 μL distilled H2O and quantified using spectrophotometric analysis at 260/280 nm with Nanodrop. DNA amounts purified among the different treatment groups vary. The DNA amount secreted from LPS-primed donor BMDM is low, approximately at 0.1 μg. The amount of DNA released by LPS-primed donor BMDM challenged with ATP is about 1.3 μg, while the amount of DNA released by LPS-primed donor BMDM challenged with nigericin is around 2 μg. The amount of DNA secreted by LPS-primed donor BMDM challenged with MSU or alum is about 0.7 μg. Applicant used 5% of the prepared DNA for qPCR measurement of extracellular mtDNA and the remaining 95% were added to the recipient BMDM for analyzing the paracrine immunostimulatory effects.

BMDM [10] = assay: mtROS (MitoSOX) in BMDM; settings: LPS-primed BMDM, compound pretreatment 16 h, ATP or nigericin
Procedure: as §1
Mitochondrial membrane potential was measured using TMRM according to manufacturer's instructions. Briefly, BMDM were primed or not with LPS for 4 h, and further stimulated with ATP or nigericin for 60 minutes. Cells were incubated with 200 nM TMRM for 30 minutes at 37° C. After washing twice, fluorescence intensity was determined per manufacturer's instructions using a FilterMax F5 multimode plate reader (Molecular Devices). Mitochondrial reactive oxygen species (mtROS) were measured using MitoSOX (Invitrogen) as described (Xian et al., 2021). BMDM treated as indicated were loaded with 4 μM MitoSOX for 20 minutes. After washing with PBS twice, cells were resuspended in PBS and counted. Equal numbers of cells from different treatment groups were then plated onto 96-well plates for fluorescence reading. To quantify [Ca^2+]m by 5 μM Rhod-2 or intracellular Ca^2+ intensity by 1 μM Fluo-4, BMDM treated as indicated were loaded with the respective dyes according to manufacturer's instructions for 30 minutes. After washing twice, fluorescence intensity was determined using a FilterMax F5 multimode plate reader (Molecular Devices). To analyze mPTP opening by calcein-quenching assay, BMDM treated as indicated were loaded with calcein at 2 μM and CoCl2 at 160 μM for 30 minutes at 37° C. according to manufacturer's instructions. After washing twice, fluorescence intensity was determined per with a FilterMax F5 multimode plate reader (Molecular Devices).

BMDM [11] = assay: 8-OH-dG content of mtDNA from mitochondria of BMDM; settings: LPS-primed BMDM, FEN1-IN-4 pretreatment, ATP or nigericin
Procedure: as §1, §2

STING = STING Ser365 phosphorylation (puncta by immunofluorescence, immunoblot) in BMDM; settings: CsA 1 μM, VBIT-4 10 μM or FEN1-IN-4 10 μM 16 hrs
Procedure: as §1
Whole cell lysates were prepared in RIPA buffer (25 mM Tris-HCl pH 7.6, 150 mM NaCl, 1% NP-40, 1% sodium deoxycholate, 0.1% SDS) containing a protease inhibitor cocktail and a phosphatase inhibitor cocktail. Protein concentrations were determined using BCA Protein Assay Kit. Equal amounts of protein were separated by SDS-PAGE and transferred onto PVDF membranes, blocked in 5% BSA in 1×TBST for 1 h and incubated with primary antibodies overnight. Secondary antibodies were added for 1 h and detection was performed using Clarity Western ECL Substrate.
BMDM were fixed in 4% paraformaldehyde (PFA), permeabilized in 0.2% Triton X-100,and blocked in 1×PBS supplemented with 3% BSA. […] Nuclei were counterstained with DAPI.

[12] = FEN1-IN-4 40 mg/kg 16 h prior to i.p. alum 1 mg, exudate 4 h later
[13] = FEN1-IN-4 40 mg/kg 16 h prior to i.p. alum, 16 h

O=c1c2ccccc2n(CC2CC2)c(=O)n1O [FEN1-IN-4]
cytosolic Ox-mtDNA (release) (BMDM [1]): abrogated
cytosolic mtDNA release (BMDM [2]): abrogated
NLRP3 inflammasome activation (Casp1 activation and mature IL-1β secretion) (NLRP3 inflammasome [3]): dose-dependent inhibition
LPS-stimulated mtDNA synthesis (total mtDNA) (BMDM [4]): did not affect
mtDNA fragmentation (BMDM [5]): abrogated
alum-induced NLRP3 inflammasome-dependent IL-1β production in vivo (peritoneal IL-1β) (NLRP3 inflammasome [6]; [12]): inhibited
peritoneal TNF secretion in vivo (NLRP3 inflammasome [6]; [12]): without an effect
monocyte infiltration (peritoneal) (NLRP3 inflammasome [6]; [13]): reduced
neutrophil infiltration (peritoneal) (NLRP3 inflammasome [6]; [13]): reduced
ccf-mtDNA secretion into peritoneal exudates [7]: inhibited
Ox-mtDNA secretion into peritoneal exudates ([7]; Fpg-sensitive qPCR): inhibited
cell-free mtDNA release (BMDM [8]): inhibited
immunostimulatory activity of DNA secreted by treated donor BMDM (BMDM [9]): inhibited
mtROS production (BMDM [10]): no effect
Ox-mtDNA generation (8-OH-dG in mitochondrial mtDNA) (BMDM [11]): no effect
formation of Ser^365 phosphorylated STING puncta (STING; LPS-primed BMDM, ATP or nigericin): diminished
ATP-induced STING Ser^365 phosphorylation (immunoblot) in Nlrp3−/− BMDM (STING; LPS-primed Nlrp3−/− BMDM, ATP): completely blocked
